Literature values, collected in patent publication US9066953B2, “Methods for increasing endurance and fat metabolism in humans” (Quality IP Holdings, LLC, priority 2012, dated 2015).

Legend:
hGH = conditions: for effect on hGH: other amino acids, literature
GH = conditions: subcutaneous injection of 0.06 IU, GH deficient subjects

Row | Molecule | effect on hGH (hGH) | further results
1 | N=C(N)NCCC[C@H](N)C(=O)O [arginine] | – | elevation of serum hGH levels (hGH; 30 g intravenous, in males): 8.6 fold; increase of hGH levels (hGH; intravenous infusion of 183 mg/kg body weight in females): > 20 fold
2 | N[C@@H](Cc1c[nH]cn1)C(=O)O [histidine] | marked increases in hGH | –
3 | NCCCC[C@H](N)C(=O)O [lysine] | marked increases in hGH | –
4 | CSCC[C@H](N)C(=O)O [methionine] | marked increases in hGH | –
5 | NCCC[C@H](N)C(=O)O [ornithine] | marked increases in hGH | –
6 | N[C@@H](Cc1ccccc1)C(=O)O [phenylalanine] | marked increases in hGH | –
7 | HGH: injected human growth hormone used in the treatment of GH deficient subjects | – | mean levels of GH reached (GH): 0.4 ng/mL
